Measured values reported in US20060165722A1 (priority 2005, published 2006).
Entries after “also recorded” stand apart in the source; their conditions may differ.

Experiments:
tetanus toxin = tested on: tetanus toxin; parameters: species or system mice; conditions: mouse, in vivo
human monocytes = assay: FACS analysis of human monocytes stimulated with AT1002; assay type: cell-based; conditions: 18 hours
human macrophages = assay: FACS analysis of human macrophages stimulated with AT1002; assay type: cell-based
C57BL/6 female mice = conditions: mouse, in vivo
[1] = AT1002 20 micrograms/ml and 1 microgram/ml

Substance | range of anti-TT IgG titer (tetanus toxin) | expression of CD80 (B7-1) on monocytes (human monocytes) | expression of CD86 (B7.2) on monocytes (human monocytes) | membrane expression of HLA-DR on monocytes (human monocytes; [1]) | membrane expression of HLA-I on monocytes (human monocytes; [1]) | protection against tetanus toxin challenge (paralysis and death) (tetanus toxin) | expression of CD40 on macrophages (human macrophages; 18 hours) | membrane expression of CD86 on macrophages (human macrophages; 18 hours) | membrane expression of HLA-DR on macrophages (human macrophages; 18 hours) | membrane expression of HLA-I on macrophages (human macrophages; 18 hours) | expression of CD80 on macrophages (human macrophages; 18 hours, not reported in the figure) | upregulation of HLA-I and HLA-DR molecules compared with LPS (human macrophages; macrophages, LPS positive control) | geometric mean titers of anti-TT IgA in vaginal secretions (C57BL/6 female mice) | geometric mean titers of anti-TT serum IgA (C57BL/6 female mice) | geometric mean titers of anti-TT serum IgG (C57BL/6 female mice) | relatively most effective AT1002 dose (anti-TT serum IgG) (C57BL/6 female mice) [nmol]
Tetanus toxoid [TT alone] | 256-4,096 | – | – | – | – | – | – | – | – | – | – | – | – | – | – | –
FCIGRL [AT1002] | – | not upregulated | not upregulated | upregulates | upregulates | all protected | upregulates | strongly upregulates | strongly upregulates | strongly upregulates | also upregulated | more efficient than LPS | induces IgA against the co-administered antigen in a mucosal district far from the site of immunization | induces serum IgA against the co-administered antigen | higher as compared to those of animals immunized with TT alone; also recorded: higher than those observed after four doses | 30
